{"source": "patent US9056844B2", "about": "“4-substituted-3-benzyloxy-bicyclo[3.1.0]hexane compounds as mGluR 2/3 antagonists” (Eli Lilly and Company, priority 2010, dated 2015)", "key": {"human mGlu8 receptor": {"biological_target": "T1, human mGlu8 receptor (Homo sapiens, UniProt O00222)", "T1 construct": "expressed in transfected cells; host or cells: AV12 cells, co-expressing rat EAAT1 and Galpha15", "T1 sequence (O00222 34-908)": "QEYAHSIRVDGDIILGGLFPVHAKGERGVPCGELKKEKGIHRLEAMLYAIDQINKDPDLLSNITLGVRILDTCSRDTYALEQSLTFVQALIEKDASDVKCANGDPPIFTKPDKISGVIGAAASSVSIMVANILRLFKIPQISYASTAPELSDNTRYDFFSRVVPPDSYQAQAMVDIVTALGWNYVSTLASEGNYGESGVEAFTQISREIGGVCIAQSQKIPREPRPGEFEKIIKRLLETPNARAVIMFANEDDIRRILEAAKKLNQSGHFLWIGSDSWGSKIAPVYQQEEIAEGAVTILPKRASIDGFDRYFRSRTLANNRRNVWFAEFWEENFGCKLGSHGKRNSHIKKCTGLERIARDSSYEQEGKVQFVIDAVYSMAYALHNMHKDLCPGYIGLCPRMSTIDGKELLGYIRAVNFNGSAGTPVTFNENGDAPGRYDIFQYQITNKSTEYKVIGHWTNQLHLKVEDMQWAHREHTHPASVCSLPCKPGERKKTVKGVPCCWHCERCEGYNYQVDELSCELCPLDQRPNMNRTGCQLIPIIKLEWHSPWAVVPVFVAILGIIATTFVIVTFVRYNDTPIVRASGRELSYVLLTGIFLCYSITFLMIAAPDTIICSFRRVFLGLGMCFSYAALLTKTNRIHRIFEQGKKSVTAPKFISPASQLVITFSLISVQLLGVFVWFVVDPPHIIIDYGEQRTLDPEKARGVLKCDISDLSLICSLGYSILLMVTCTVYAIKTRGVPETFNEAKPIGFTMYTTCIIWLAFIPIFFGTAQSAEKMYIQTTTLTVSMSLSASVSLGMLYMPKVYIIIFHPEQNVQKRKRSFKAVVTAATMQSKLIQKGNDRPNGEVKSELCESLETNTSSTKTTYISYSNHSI", "assay": "FLIPR calcium assay for mGlu receptor selectivity, mGlu8 antagonist mode", "type": "cell-based", "settings": "for inhibition at 12.5 µM: inhibition of EC90 glutamate response, read-out: mGlu8 % inhib. @12.5 μM; for IC50: printed in brackets below the % inhib. value", "source_text": "FLIPR and cAMP Assays for mGlu Receptor Selectivity\nThe relative antagonist potencies of the compounds of the invention for the other human mGlu receptors can be assessed with either a cAMP assay or fluorometric calcium response assay (see for example Fell et al., JPET (in press)). Briefly, individual AV12 cell lines containing the rat EAAT1 glutamate transporter and stably expressing the human mGlu1, 2, 3, 4, 5, 6, & 8 receptors are used for these studies. The mGlu1 and 5 receptors are […], so they naturally signal through phospholipase C, producing a calcium flux response which can be used to measure receptor activation using a Fluorometric Imaging Plate Reader (FLIPR, Molecular Devices). The cell lines expressing the mGlu2, 3, 4, and 8 receptor are designed to express the Gα15 subunit so that these Gi-coupled receptors will generate a calcium flux response similar to the mGlu1 and 5 receptor expressing cell lines. The mGlu6 receptor is tested in a cAMP format using methods analogous to those developed for mGlu2 and mGlu3 above. These cell lines are maintained as previously described except that amounts of L-glutamine and selection agents (geneticin, hygromycin B, zeocin, and blasticidin) may vary depending on the cell line. Confluent cultures are passaged biweekly.\nIntracellular calcium levels are monitored using FLIPR before and after the addition of test compounds and Fluo-3 AM (Invitrogen) or Calcium 4 (Molecular Devices) dye, depending on the cell line. Cells are plated 24 hours prior to assay in a variable concentration of glutamine and a variable density of cells per well, depending on the cell line. The medium is removed and the cells are incubated with 8 μM of dye (50 μl per well) for 90 or 120 minutes (depending on cell line) at 25° C. A single-addition FLIPR assay generating an 11-point concentration response curve for the agonist glutamate is conducted prior to each experiment to confirm the appropriate sensitivity of the cells. The results are analyzed using GraphPad Prism v4.03 to calculate the concentrations of glutamate needed to induce the EC90 (antagonist assay) and EC10 (potentiator assay) responses.\nCompounds are tested at each mGlu receptor in a two-addition FLIPR assay using a 10-point concentration response profile starting at a final concentration of 25 μM for the agonist assay and 12.5 μM for the potentiator and antagonist assays. The first addition detects any agonist activity, and the second addition consists of 100 μl of select concentrations (depending on cell line) of glutamate in assay buffer generating an EC10 or EC90 glutamate response. Agonist effects are quantified as percent stimulation induced by compound alone relative to the maximal glutamate response. Antagonist effects are quantified by calculating the percent inhibition of the EC90 glutamate response caused by the compound. Potentiation effects are quantified as percent increase in the presence of an EC10 response in glutamate relative to the ECmax response. All data are calculated as relative IC50 or EC50 values using a four-parameter logistic curve fitting program (ActivityBase v5.3.1.22)."}, "male NIH-Swiss mice": {"tested_on": "male NIH-Swiss mice", "assay": "Forced-swim test in mice (mFST)", "type": "in vivo, mouse", "settings": "for ED60: Mus musculus, ip, immobility in last 4 min of 6 min; for Maximal Decrease (1 − compound/control) * 100%: i.p., immobility time", "source_text": "Forced-Swim Test in Mice (mFST)\nmFST is an established in vivo assay for antidepressant activity (Li et al. J Pharmacol Exp Ther. 319(1):254-9, 2006.). […] The mFST was used to evaluate potential antidepressant-like activity of novel mGlu2/3 antagonists essentially as described in previously published methods (see for example, Li et al. J Pharmacol Exp Ther. 319(1):254-9, 2006.). Briefly, male NIH-Swiss mice (Harlan Sprague-Dawley, Indianapolis, Ind.) weighing between 25-30 g are used. Group housed animals are removed from the vivarium to the testing area in their own cages and allowed to adapt to the new environment for at least 1 hour before testing. Compounds where R^1 and R^2 are both hydrogen are dissolved in water with minimal NaOH added for dissolution and are administered i.p. Compounds where R^1 and/or R^2 are other than hydrogen are prepared on the day of use in 2.0-2.5% N-methyl-pyrrolidinone and then suspended in 1% HEC, 0.25% Tween 80, and 0.05% Dow antifoam, and administered orally. Mice are placed in a cylinder (diameter: 10 cm; height: 25 cm) filled with 6 cm of water (22-25° C.) for 6 min. The duration of immobility during the last 4 min. of the 6 min. period of the test was scored. A mouse is recorded as immobile when floating motionless or making only those movements necessary to keep its head above water."}}, "data": [{"smiles": "Cl.N[C@]1(C(=O)O)[C@@H]2[C@@H](C(=O)O)[C@@H]2[C@H](NC(=O)CO)[C@H]1OCc1ccc(Cl)c(Cl)c1", "note": "[Example 9, (1S,2R,3R,4S,5R,6S)-2-Amino-3-[(3,4-dichlorobenzyl)oxy]-4-[(hydroxyacetyl)amino]bicyclo[3.1.0]hexane-2,6-dicarboxylic acid hydrochloride]", "values": [{"measurement": "inhibition at 12.5 µM", "setting": "human mGlu8 receptor", "result": 13.3, "unit": "%"}, {"measurement": "ED60", "setting": "male NIH-Swiss mice", "result": 9.68, "unit": "mg/kg"}, {"measurement": "Maximal Decrease (1 − compound/control) * 100%", "setting": "male NIH-Swiss mice", "result": 41, "unit": "%"}]}, {"smiles": "N[C@]1(C(=O)O)[C@@H]2[C@@H](C(=O)O)[C@@H]2[C@H](Sc2nc[nH]n2)[C@H]1OCc1ccc(Cl)c(Cl)c1", "note": "[Example 2, (1R,2R,3S,4S,5R,6R)-2-Amino-3-[(3,4-dichlorobenzyl)oxy]-4-(1H-1,2,4-triazol-3-ylsulfanyl)bicyclo[3.1.0]hexane-2,6-dicarboxylic acid]", "values": [{"measurement": "inhibition at 12.5 µM", "setting": "human mGlu8 receptor", "result": 92.3, "unit": "%"}, {"measurement": "IC50", "setting": "human mGlu8 receptor", "result": 0.507, "unit": "µM"}, {"measurement": "ED60", "setting": "male NIH-Swiss mice", "result": 2.08, "unit": "mg/kg"}, {"measurement": "Maximal Decrease (1 − compound/control) * 100%", "setting": "male NIH-Swiss mice", "result": 62, "unit": "%"}]}, {"smiles": "Cl.Cn1cnc(S[C@H]2[C@H]3[C@H](C(=O)O)[C@H]3[C@](N)(C(=O)O)[C@@H]2OCc2ccc(Cl)c(Cl)c2)n1", "note": "[Example 7, (1R,2R,3S,4S,5R,6R)-2-Amino-3-[(3,4-dichlorophenyl)methoxy]-4-[(1-methyl-1,2,4-triazol-3-yl)sulfanyl]bicyclo[3.1.0]hexane-2,6-dicarboxylic acid hydrochloride.]", "values": [{"measurement": "inhibition at 12.5 µM", "setting": "human mGlu8 receptor", "result": 46.7, "unit": "%"}, {"measurement": "ED60", "setting": "male NIH-Swiss mice", "result": "> 10", "unit": "mg/kg"}, {"measurement": "Maximal Decrease (1 − compound/control) * 100%", "setting": "male NIH-Swiss mice", "result": 18, "unit": "%"}]}, {"smiles": "N[C@]1(C(=O)O)[C@@H]2[C@@H](C(=O)O)[C@@H]2[C@H](O)[C@H]1OCc1ccc(Cl)c(Cl)c1", "note": "[Example 1, (1S,2R,3S,4S,5R,6R)-2-Amino-3-[(3,4-dichlorobenzyl)oxy]-4-hydroxybicyclo[3.1.0]hexane-2,6-dicarboxylic acid]", "values": [{"measurement": "inhibition at 12.5 µM", "setting": "human mGlu8 receptor", "result": 78.4, "unit": "%"}, {"measurement": "IC50", "setting": "human mGlu8 receptor", "result": 1.9, "unit": "µM"}, {"measurement": "ED60", "setting": "male NIH-Swiss mice", "result": 1, "unit": "mg/kg"}, {"measurement": "Maximal Decrease (1 − compound/control) * 100%", "setting": "male NIH-Swiss mice", "result": 59, "unit": "%"}]}, {"smiles": "CC(=O)N[C@H]1[C@H]2[C@H](C(=O)O)[C@H]2[C@](N)(C(=O)O)[C@@H]1OCc1ccc(Cl)c(Cl)c1", "note": "[Example 4, (1S,2R,3R,4S,5R,6S)-4-(Acetylamino)-2-amino-3-[(3,4-dichlorobenzyl)oxy]bicyclo[3.1.0]hexane-2,6-dicarboxylic acid]", "values": [{"measurement": "inhibition at 12.5 µM", "setting": "human mGlu8 receptor", "result": 23.4, "unit": "%"}, {"measurement": "ED60", "setting": "male NIH-Swiss mice", "result": 9.5, "unit": "mg/kg"}, {"measurement": "Maximal Decrease (1 − compound/control) * 100%", "setting": "male NIH-Swiss mice", "result": 38, "unit": "%"}]}]}
